Assay results: ChEMBL document CHEMBL1201862, “PubChem BioAssay data set” (2004)
The source made the active and inactive calls.

Columns and labels:
[1] = target: T1, Short transient receptor potential channel 4 (Mus musculus, UniProt Q9QUQ5); assay: mouse TRPC4 channel activators, dose response, cell-based, HEK293 TRPC4/mu-opioid, Fluo-4 calcium (AID 434937); type: functional
T1 sequence (Q9QUQ5 whole entry): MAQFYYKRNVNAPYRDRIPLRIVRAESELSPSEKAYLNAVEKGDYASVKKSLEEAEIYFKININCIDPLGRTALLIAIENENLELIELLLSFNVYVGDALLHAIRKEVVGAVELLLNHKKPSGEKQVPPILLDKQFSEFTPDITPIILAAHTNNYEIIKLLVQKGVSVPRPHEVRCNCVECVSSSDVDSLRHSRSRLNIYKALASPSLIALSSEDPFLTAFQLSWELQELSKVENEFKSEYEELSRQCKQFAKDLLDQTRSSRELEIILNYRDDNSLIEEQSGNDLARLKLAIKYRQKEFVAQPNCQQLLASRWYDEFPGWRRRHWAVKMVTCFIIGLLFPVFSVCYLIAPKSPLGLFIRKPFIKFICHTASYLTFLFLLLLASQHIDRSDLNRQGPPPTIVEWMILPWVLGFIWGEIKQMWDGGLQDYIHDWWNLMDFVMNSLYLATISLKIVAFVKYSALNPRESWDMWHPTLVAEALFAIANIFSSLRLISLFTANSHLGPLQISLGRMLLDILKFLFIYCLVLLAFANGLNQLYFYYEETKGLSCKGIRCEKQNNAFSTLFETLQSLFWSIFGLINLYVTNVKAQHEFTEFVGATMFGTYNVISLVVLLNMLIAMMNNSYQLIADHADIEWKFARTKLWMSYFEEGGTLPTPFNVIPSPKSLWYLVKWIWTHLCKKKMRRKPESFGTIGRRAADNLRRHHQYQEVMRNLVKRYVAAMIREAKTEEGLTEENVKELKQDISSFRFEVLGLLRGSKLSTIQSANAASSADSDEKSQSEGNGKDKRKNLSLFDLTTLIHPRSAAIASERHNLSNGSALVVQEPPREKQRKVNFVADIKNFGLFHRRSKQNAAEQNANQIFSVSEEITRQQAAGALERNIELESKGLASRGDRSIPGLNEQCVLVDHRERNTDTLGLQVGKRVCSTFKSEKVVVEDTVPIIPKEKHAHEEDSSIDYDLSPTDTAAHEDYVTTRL

Cytochrome P450 2C19 = Cytochrome P450 2C19 (Homo sapiens, UniProt P33261); assay: Cytochrome panel assay with activity outcomes. Panel member name: p450-cyp2c19 Compounds with AC50 equal or less than 10 uM are considered active; type: functional
Cytochrome P450 1A2 = target: T2, Cytochrome P450 1A2 (Homo sapiens, UniProt P05177);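 further: PubChem cytochrome P450 panel assay, CYP1A2 panel member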
T2 sequence (P05177 whole entry): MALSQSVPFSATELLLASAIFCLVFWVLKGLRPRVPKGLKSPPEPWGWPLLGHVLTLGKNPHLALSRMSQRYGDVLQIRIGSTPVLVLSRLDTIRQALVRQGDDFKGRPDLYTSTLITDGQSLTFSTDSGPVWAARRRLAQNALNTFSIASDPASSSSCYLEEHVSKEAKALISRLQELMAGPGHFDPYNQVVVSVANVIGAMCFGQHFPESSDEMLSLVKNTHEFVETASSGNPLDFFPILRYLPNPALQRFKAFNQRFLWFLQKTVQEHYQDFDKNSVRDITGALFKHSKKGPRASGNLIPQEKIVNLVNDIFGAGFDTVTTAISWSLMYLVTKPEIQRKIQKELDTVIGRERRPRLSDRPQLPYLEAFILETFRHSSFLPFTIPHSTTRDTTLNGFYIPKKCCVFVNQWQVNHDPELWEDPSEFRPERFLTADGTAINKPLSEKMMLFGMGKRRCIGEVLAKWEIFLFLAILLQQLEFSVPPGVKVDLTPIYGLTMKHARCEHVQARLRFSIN

Cytochrome P450 2D6 = Cytochrome P450 2D6 (Homo sapiens, UniProt P10635);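 further: CYP2D6 member of a cytochrome P450 panel assay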
[2] = target: Eukaryotic translation initiation factor 4E (Mus musculus, UniProt P63073); assay: eIF4E–eIF4G protein interaction inhibitors, dose response, biochemical, TR-FRET (AID 855); type: functional;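 further: potency for disrupting eIF4E binding to eIF4GI seen as loss of FRET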
Kallikrein-7 = Kallikrein-7 (Homo sapiens, UniProt P49862); assay: Fluorescence Intensity-based biochemical primary high throughput dose response assay to identify activators of kallikrein-7 (K7) zymogen.
Cytochrome P450 3A4 [3] = target: T3, Cytochrome P450 3A4 (Homo sapiens, UniProt P08684); settings: Potency
[4] = inhibitors of firefly luciferase expression or activity, dose response, H4 neuroglioma cells, luminescence (AID 1990); type: functional, cell-based
BJ [5] = assay: cytotoxicity toward BJ-TERT fibroblasts, dose response, cell-based, RAS-independent, luminescence (AID 1933); type: functional; settings: Homo sapiens
[6] = Luminescence Cell-Based Dose Response HTS to Identify Inhibitors of 5'UTR Stem-Loop Driven Prion Protein mRNA Translation in H4 Neuroglioblastoma Cells. [Related pubchem assays: 1827 (Project Summary), 1813 (Primary HTS)]; type: functional
[7] = inhibitors of SNCA 5'UTR-driven reporter translation, confirmation, H4 neuroglioma cells, luminescence (AID 1988); type: functional, cell-based
BJ [8] = assay: cells; type: functional, cell-based; settings: Homo sapiens
BJ [9] = assay: cytotoxicity toward BJ-TERT-LT-ST fibroblasts, dose response, cell-based, RAS-independent, luminescence (AID 1935); type: functional; settings: Homo sapiens;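 further: BJ fibroblasts immortalized with TERT plus LT and ST oncogenes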
[10] = cytotoxicity toward DRD oncogenic fibroblasts, dose response, cell-based, non-viral oncogenic, luminescence (AID 1934); type: functional; settings: Homo sapiens
[11] = Luminescence Cell-Based Dose Retest to Confirm Inhibitors of Cancer Stem Cells. [Related pubchem assays (depositor defined):AID2717, AID2721]; type: functional; settings: Homo sapiens
BJ [12] = assay: cytotoxicity toward Ras-transformed BJeLR fibroblasts, dose response, cell-based, alamar blue fluorescence, cherrypicked samples (AID 2631); type: functional; settings: Homo sapiens;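 further: confirmatory dose-response assay in RAS-dependent BJ fibroblasts engineered with TERT, LT and ST, with cytotoxicity read by fluorescence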
Cytochrome P450 2C9 [13] = target: T4, Cytochrome P450 2C9 (Homo sapiens, UniProt P11712)
Cytochrome P450 3A4 [14] = target: T3, Cytochrome P450 3A4
Cytochrome P450 2C9 [15] = target: T4, Cytochrome P450 2C9; remark: listed apart in the source
[16] = target: T1, Short transient receptor potential channel 4; assay: mouse TRPC4 channel inhibitors, dose response, cell-based, HEK293 TRPC4/mu-opioid, Fluo-4 calcium (AID 434942); type: functional;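 further: potency of inhibitors blocking the TRPC4 calcium response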
[17] = Shn3 3'UTR reporter inhibitors, dose response, cell-based, Clone20 osteoblasts, firefly luciferase, cherry-picked (AID 624132); type: functional;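 further: firefly luciferase luminescence from reporter carrying the Shn3 3'UTR in osteoblasts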
[18] = control 3'UTR Renilla luciferase suppression, dose response, counter-screen for Shn3 inhibitor project, cell-based, Clone20-Shn3RL, cherry-picked (AID 624133); type: functional
Protein Wnt-3a = Protein Wnt-3a (Mus musculus, UniProt P27467); assay: Wnt3a-driven reporter signaling inhibition, dose response, selectivity assay for Gli-SUFU antagonist project, Wnt-LIGHT cells, luminescence (AID 651570); type: functional; settings: read-out: IC50_Mean;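 further: Wnt-LIGHT reporter cells stimulated with conditioned medium from Wnt3a-producing cells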
Protein Wnt-3a, sequence (P27467 whole entry): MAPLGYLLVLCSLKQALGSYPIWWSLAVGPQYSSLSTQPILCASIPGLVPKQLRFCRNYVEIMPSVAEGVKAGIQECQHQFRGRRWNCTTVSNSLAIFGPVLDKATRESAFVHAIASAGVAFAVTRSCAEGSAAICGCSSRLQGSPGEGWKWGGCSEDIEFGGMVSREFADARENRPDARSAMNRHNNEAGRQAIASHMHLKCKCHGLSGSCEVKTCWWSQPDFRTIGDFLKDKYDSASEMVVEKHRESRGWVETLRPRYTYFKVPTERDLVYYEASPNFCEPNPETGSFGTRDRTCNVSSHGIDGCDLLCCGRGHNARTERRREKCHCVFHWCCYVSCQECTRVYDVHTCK

Eukaryotic translation initiation factor 4E, sequence (P63073 whole entry): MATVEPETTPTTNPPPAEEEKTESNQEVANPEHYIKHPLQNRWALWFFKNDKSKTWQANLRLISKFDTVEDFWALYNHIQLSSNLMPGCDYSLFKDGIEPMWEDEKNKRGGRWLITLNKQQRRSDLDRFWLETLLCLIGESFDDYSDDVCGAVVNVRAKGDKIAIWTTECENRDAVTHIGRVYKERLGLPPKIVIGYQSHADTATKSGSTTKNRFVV
T3 sequence (P08684 whole entry): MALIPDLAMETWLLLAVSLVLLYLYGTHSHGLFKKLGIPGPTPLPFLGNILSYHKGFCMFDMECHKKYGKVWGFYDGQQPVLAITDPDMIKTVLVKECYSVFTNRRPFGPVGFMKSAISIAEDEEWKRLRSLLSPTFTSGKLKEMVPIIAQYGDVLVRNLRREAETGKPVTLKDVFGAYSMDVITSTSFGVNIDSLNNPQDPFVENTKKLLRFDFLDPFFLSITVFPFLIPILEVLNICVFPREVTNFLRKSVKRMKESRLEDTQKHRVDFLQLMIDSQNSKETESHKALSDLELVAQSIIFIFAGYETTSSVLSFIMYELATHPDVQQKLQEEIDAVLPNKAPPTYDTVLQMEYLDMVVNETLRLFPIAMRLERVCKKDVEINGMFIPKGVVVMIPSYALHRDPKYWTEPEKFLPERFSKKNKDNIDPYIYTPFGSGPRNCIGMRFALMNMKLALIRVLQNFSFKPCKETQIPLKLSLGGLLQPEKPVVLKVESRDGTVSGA
T4 sequence (P11712 whole entry): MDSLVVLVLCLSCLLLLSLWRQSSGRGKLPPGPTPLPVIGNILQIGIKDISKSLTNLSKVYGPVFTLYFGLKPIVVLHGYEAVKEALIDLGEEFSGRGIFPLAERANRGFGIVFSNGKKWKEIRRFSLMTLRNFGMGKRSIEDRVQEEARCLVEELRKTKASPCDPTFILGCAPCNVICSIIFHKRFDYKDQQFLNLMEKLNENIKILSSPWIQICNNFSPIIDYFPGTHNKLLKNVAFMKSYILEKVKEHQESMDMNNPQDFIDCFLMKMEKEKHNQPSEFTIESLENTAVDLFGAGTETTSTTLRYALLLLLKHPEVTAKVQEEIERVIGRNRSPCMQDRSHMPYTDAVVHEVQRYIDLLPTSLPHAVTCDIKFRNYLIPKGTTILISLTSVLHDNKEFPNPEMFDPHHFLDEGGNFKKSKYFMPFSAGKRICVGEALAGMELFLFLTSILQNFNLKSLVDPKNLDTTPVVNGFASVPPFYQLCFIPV
Cytochrome P450 2D6, sequence (P10635 whole entry): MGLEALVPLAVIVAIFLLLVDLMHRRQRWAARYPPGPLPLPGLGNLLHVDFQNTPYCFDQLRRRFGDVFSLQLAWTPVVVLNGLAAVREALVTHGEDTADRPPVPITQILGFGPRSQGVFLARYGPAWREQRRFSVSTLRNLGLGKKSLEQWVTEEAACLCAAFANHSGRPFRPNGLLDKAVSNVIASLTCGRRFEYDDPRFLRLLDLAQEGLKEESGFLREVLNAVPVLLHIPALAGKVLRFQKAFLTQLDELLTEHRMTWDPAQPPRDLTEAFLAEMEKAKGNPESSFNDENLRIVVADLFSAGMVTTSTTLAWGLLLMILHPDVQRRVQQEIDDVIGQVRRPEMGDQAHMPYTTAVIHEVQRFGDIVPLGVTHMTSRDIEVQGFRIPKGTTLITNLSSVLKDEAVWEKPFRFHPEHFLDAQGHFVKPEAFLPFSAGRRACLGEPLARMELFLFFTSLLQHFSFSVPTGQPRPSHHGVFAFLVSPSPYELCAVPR
Cytochrome P450 2C19, sequence (P33261 whole entry): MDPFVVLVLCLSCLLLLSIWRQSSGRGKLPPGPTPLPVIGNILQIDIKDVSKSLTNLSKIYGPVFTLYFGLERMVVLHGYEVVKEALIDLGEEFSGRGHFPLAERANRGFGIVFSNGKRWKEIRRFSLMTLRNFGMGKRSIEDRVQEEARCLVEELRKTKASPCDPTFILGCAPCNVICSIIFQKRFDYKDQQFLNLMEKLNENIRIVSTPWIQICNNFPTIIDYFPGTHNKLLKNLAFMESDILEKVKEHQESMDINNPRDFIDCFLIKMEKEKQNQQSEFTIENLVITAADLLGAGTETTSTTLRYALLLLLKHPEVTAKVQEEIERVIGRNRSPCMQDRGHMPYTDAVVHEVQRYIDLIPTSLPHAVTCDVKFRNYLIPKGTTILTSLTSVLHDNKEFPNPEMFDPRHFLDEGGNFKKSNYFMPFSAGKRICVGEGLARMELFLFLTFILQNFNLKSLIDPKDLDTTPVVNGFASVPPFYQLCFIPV
Kallikrein-7, sequence (P49862 whole entry): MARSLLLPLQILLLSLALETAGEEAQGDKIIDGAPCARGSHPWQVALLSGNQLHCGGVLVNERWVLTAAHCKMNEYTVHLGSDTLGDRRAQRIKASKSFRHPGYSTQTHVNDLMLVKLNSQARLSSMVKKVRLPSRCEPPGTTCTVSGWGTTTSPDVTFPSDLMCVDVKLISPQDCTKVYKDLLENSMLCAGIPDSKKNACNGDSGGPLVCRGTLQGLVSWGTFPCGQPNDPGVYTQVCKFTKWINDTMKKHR

O=C(CCCc1ccccc1)NCCc1cnc[nH]1
EC50 [1]: 5.31 µM (active)

Cc1cc(C)nc(Nc2n[nH]c(COc3ccc4ccccc4c3)n2)n1
AC50 (Cytochrome P450 2C19; read-out: AC50): 17.8 µM (inconclusive)
AC50 (Cytochrome P450 1A2): 1.12 µM (inconclusive)
AC50 (Cytochrome P450 2D6): inconclusive

CCc1nnc(NC(=O)Cn2nc(-c3ccccc3OC)ccc2=O)s1
IC50 [2]: > 64 µM (inactive)

O=C(CSc1ncn(-c2ccccc2)n1)N1CCc2ccccc21
IC50 [2]: > 64 µM (inactive)

COC(=O)CNC(=O)COC(=O)c1cc(Cl)cc(Cl)c1N
EC50 (Kallikrein-7): > 69.5 µM (inactive)

COc1ccc(/C=C/C(O)=C2/C(=O)NC3(C)CC2c2ccccc2O3)c(OC)c1OC (stereo unspecified)
EC50 (Kallikrein-7): > 69.6 µM (inactive)

CC(=O)Oc1c2c(c3c(c1CC=C(C)C)O[C@@]14C(=CC5CC1C(C)(C)OC4(C/C=C(\C)C(=O)O)C5=O)C3=O)OC(C)(CCC=C(C)C)C=C2 (stereo partly specified)
AC50 (Cytochrome P450 3A4 [3]): 39.8 µM (inconclusive)

COc1cc(C(=O)NNC(=O)C2CC=CCC2C(=O)O)cc(OC)c1OC (stereo unspecified)
IC50 [2]: > 64 µM (inactive)

O=Cc1cc2ccccc2nc1SCc1ccc(Cl)cc1
EC50 [4]: 9.87 µM (active)
EC50 (BJ [5]): 0.635 µM (active)
EC50 [6]: 0.745 µM (active)
EC50 [7]: 0.724 µM (active)
EC50 (BJ [8]): 0.699 µM (active)
EC50 (BJ [9]): 0.434 µM (active)
EC50 [10]: 1.1 µM (active)
AC50 [11]: 3.66 µM (active)
EC50 (BJ [12]): 0.134 µM (active)

O=C(Nc1ccc2c(c1)OCCO2)C1CCN(C(=O)c2ccccc2)CC1
AC50 (Cytochrome P450 2D6): inconclusive

CCOC(=O)C(Sc1ncnc2c1sc1nc(N3CCOCC3)c3c(c12)CCCC3)c1ccccc1 (stereo unspecified)
AC50 (Cytochrome P450 2C19; read-out: AC50): 10 µM (inconclusive)
AC50 (Cytochrome P450 2C9 [13]): 0.316 µM (inconclusive)
AC50 (Cytochrome P450 3A4 [14]): inconclusive

CCN(CC)CCn1c(-c2ccccc2)nc2c(NCCOC)nc(C)nc21
AC50 (Cytochrome P450 3A4 [3]): 12.6 µM (inconclusive)

CS(=O)(=O)N1CCC2(CCN(C(c3ccccc3)c3ccccc3)CC2)CC1
AC50 (Cytochrome P450 3A4 [14]): inconclusive

COc1ccccc1CN1CC2(CCN(S(=O)(=O)c3ccccc3)CC2)C1
AC50 (Cytochrome P450 2C19): inconclusive
AC50 (Cytochrome P450 2D6): inconclusive
AC50 (Cytochrome P450 2C9 [15]): inconclusive

Cn1cccc1C(=O)N1CCC2(CC1)CCN(c1ccc(-c3ccccc3)cc1)CC2
AC50 (Cytochrome P450 1A2): 20 µM (inconclusive)
AC50 (Cytochrome P450 3A4 [14]): inconclusive

COCCNc1ncncc1-c1c(C)noc1C
AC50 (Cytochrome P450 2C9 [15]): inconclusive

COc1ccc(Cl)cc1NC(=O)CNCC(c1ccccc1)N(C)C (stereo unspecified)
EC50 [16]: 0.421 µM (active)
EC50 [1]: 1.06 µM (active)

Cc1nn(Cc2noc(C(=O)NC3CCC(C)CC3)n2)c(C)c1Br (stereo unspecified)
AC50 [17]: 3.28 µM (active)
AC50 [18]: 6.78 µM (active)
IC50 (Protein Wnt-3a): 4.35 µM (active)
